Reference: ChEMBL document CHEMBL1201862, “PubChem BioAssay data set” (2004)
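Test compounds were applied to cells in 96-well plates for 48 hours at 5 doses. GI50: concentration for 50% inhibition of growth.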 Active and inactive are the calls of the source. Rule as the data show it: active = GI50 up to about 1.1 µM and inactive = higher.

What was measured:
Experiment in all cases: growth of human tumour cells (NCI), 48 h
[1] = system: HCT-116
[2] = system: CCRF-CEM
[3] = system: SW-620
[4] = system: TK-10
[5] = system: NCI-H23
[6] = system: KM12
[7] = system: SNB-19
[8] = system: SF-268
[9] = system: UACC-62
[10] = system: OVCAR-3
[11] = system: Malme-3M
[12] = system: MDA-N
[13] = system: SK-MEL-5
[14] = system: A549
[15] = system: NCI-H226
[16] = system: SK-MEL-28
[17] = system: LOX IMVI
[18] = system: U-251
[19] = system: COLO 205
[20] = system: MCF7

| Compound | GI50 [1] | GI50 [2] | GI50 [3] | GI50 [4] | GI50 [5] | GI50 [6] | GI50 [7] | GI50 [8] | GI50 [9] | GI50 [10] | GI50 [11] | GI50 [12] | GI50 [13] | GI50 [14] | GI50 [15] | GI50 [16] | GI50 [17] | GI50 [18] | GI50 [19] | GI50 [20] |
| --- | --- | --- | --- | --- | --- | --- | --- | --- | --- | --- | --- | --- | --- | --- | --- | --- | --- | --- | --- | --- |
| Cc1cc(C)c2c(c1)C/C(=C\c1cccc(C)c1C(=O)O)C2=O | 45.9 µM (inactive) | 36.6 µM (inactive) | 64.4 µM (inactive) | > 100 µM (inactive) | 63.2 µM (inactive) | 51.6 µM (inactive) | 59.6 µM (inactive) | 24.4 µM (inactive) | 47.8 µM (inactive) | 54.5 µM (inactive) | 58.1 µM (inactive) | 35.3 µM (inactive) | 34.7 µM (inactive) | 43.3 µM (inactive) | 44.2 µM (inactive) | 87.9 µM (inactive) | 69.5 µM (inactive) |  |  |  |
| Cc1ccc2c(c1)[nH]c(=S)n2C=C(C(N)=O)C(N)=O | > 100 µM (inactive) |  | > 100 µM (inactive) | > 100 µM (inactive) | > 100 µM (inactive) | > 100 µM (inactive) | > 100 µM (inactive) | > 100 µM (inactive) | > 100 µM (inactive) | > 100 µM (inactive) |  | > 100 µM (inactive) | > 100 µM (inactive) | > 100 µM (inactive) | > 100 µM (inactive) | > 100 µM (inactive) | > 100 µM (inactive) | > 100 µM (inactive) | > 100 µM (inactive) |  |
| Cn1c2ccccc2c2nc3ccccc3c(Cl)c21 | > 100 µM (inactive) | > 100 µM (inactive) | > 100 µM (inactive) | > 100 µM (inactive) | 36.2 µM (inactive) | > 100 µM (inactive) | > 100 µM (inactive) | > 100 µM (inactive) | 92.5 µM (inactive) | > 100 µM (inactive) | > 100 µM (inactive) |  |  | > 100 µM (inactive) | > 100 µM (inactive) | > 100 µM (inactive) | > 100 µM (inactive) | 55.8 µM (inactive) | > 100 µM (inactive) | > 100 µM (inactive) |
| CCCCCCCCCCCCCCCCCCNc1ccn(C2OC(CO)C(OP(=O)(O)OCC3CCC(n4ccc(N)nc4=O)O3)C2O)c(=O)n1 (stereo unspecified) | 66.5 µM (inactive) | 16.7 µM (inactive) | 46.3 µM (inactive) | 42.1 µM (inactive) | > 100 µM (inactive) | 36.3 µM (inactive) | > 100 µM (inactive) | 27.9 µM (inactive) | > 100 µM (inactive) | > 100 µM (inactive) | 21.1 µM (inactive) | > 100 µM (inactive) | > 100 µM (inactive) | > 100 µM (inactive) | > 100 µM (inactive) | 61.5 µM (inactive) | 32.3 µM (inactive) | > 100 µM (inactive) | 45.9 µM (inactive) |  |
| NCCSCC(N)C(=O)O (stereo unspecified) | 39.7 µM (inactive) | 29 µM (inactive) | 46.8 µM (inactive) | > 497 µM (inactive) | > 497 µM (inactive) | 38 µM (inactive) | > 497 µM (inactive) | > 497 µM (inactive) | > 497 µM (inactive) | > 64.9 µM (inactive) | > 66.2 µM (inactive) |  | > 63.7 µM (inactive) | 47.6 µM (inactive) | > 497 µM (inactive) | > 497 µM (inactive) | > 497 µM (inactive) | > 497 µM (inactive) | > 75.9 µM (inactive) | 46.7 µM (inactive) |
| C=C1C(=O)O[C@H]2[C@@H](O)[C@H](C)CCC[C@]3(C)O[C@H]3CC[C@@]3(C)O[C@@H]3C[C@@H]12 | 1.75 µM (inactive) | 1.58 µM (inactive) | 1.52 µM (inactive) |  | 6.49 µM (inactive) | 7.94 µM (inactive) | 11.9 µM (inactive) | 6.07 µM (inactive) | 2.3 µM (inactive) | 4.31 µM (inactive) |  |  | 4.04 µM (inactive) | 9.33 µM (inactive) | 7.43 µM (inactive) | 2.83 µM (inactive) |  | 8.57 µM (inactive) | 3.01 µM (inactive) | 2.08 µM (inactive) |
| N#Cc1cccc2c1Sc1ccccc1N2 | 31.3 µM (inactive) | 7.48 µM (inactive) | 20.7 µM (inactive) | 17.1 µM (inactive) | 21.2 µM (inactive) | 32.7 µM (inactive) | 33.1 µM (inactive) | 30.8 µM (inactive) | 27.2 µM (inactive) | 57 µM (inactive) | 41.6 µM (inactive) |  | 0.553 µM (active) | 24.5 µM (inactive) | 29.3 µM (inactive) |  | 10.4 µM (inactive) | 20 µM (inactive) | 19.8 µM (inactive) | 30.2 µM (inactive) |
| CC(C)(C)NC1C2CCC(C)(C1O)C2(C)C (stereo unspecified) | > 100 µM (inactive) |  | > 100 µM (inactive) | > 100 µM (inactive) | > 100 µM (inactive) | > 100 µM (inactive) | > 100 µM (inactive) | > 100 µM (inactive) | 3.67 µM (inactive) | > 100 µM (inactive) | > 100 µM (inactive) |  | > 100 µM (inactive) | > 100 µM (inactive) |  | > 100 µM (inactive) | > 100 µM (inactive) | > 100 µM (inactive) | > 100 µM (inactive) | 4.14 µM (inactive) |
| C=C1C(=O)OC2(C)C3CCC(C3)C12 (stereo unspecified) | 37.6 µM (inactive) | 24.8 µM (inactive) | 47.2 µM (inactive) | 36.3 µM (inactive) | 30.8 µM (inactive) | 43.4 µM (inactive) | > 100 µM (inactive) | 69.2 µM (inactive) | 63.8 µM (inactive) | 53.5 µM (inactive) | 44.1 µM (inactive) |  | 87.1 µM (inactive) | > 100 µM (inactive) | > 100 µM (inactive) | > 100 µM (inactive) | 80.2 µM (inactive) | > 100 µM (inactive) | 23.1 µM (inactive) |  |
| CCCCCCCCCCCCC(SCCNC(=O)CCNC(=O)C(O)C(C)(C)COP(=O)(O)OP(=O)(O)OCC1OC(n2cnc3c(N)ncnc32)C(O)C1OP(=O)(O)O)C(=O)NCC(N)=O (stereo unspecified) | 41.3 µM (inactive) | > 100 µM (inactive) | > 100 µM (inactive) | > 100 µM (inactive) | > 100 µM (inactive) | > 100 µM (inactive) | 66.7 µM (inactive) | > 100 µM (inactive) | > 100 µM (inactive) | > 100 µM (inactive) | > 100 µM (inactive) |  | > 100 µM (inactive) | > 100 µM (inactive) | 79.6 µM (inactive) | > 100 µM (inactive) | > 100 µM (inactive) | 34.9 µM (inactive) | 49.2 µM (inactive) |  |
| C=C1C(=O)O[C@H]2[C@H]3O[C@@H](C[C@@H]12)[C@](C)(O)CC[C@@H]1O[C@@]1(C)CCC[C@H]3C | 14.2 µM (inactive) | 11.4 µM (inactive) | 19.2 µM (inactive) | 17.1 µM (inactive) | 16.4 µM (inactive) | 20 µM (inactive) | 36.3 µM (inactive) | 15.6 µM (inactive) | 16.5 µM (inactive) | 16.7 µM (inactive) | 12 µM (inactive) |  | 14.7 µM (inactive) | 25.5 µM (inactive) | 23.3 µM (inactive) | 32 µM (inactive) | 16 µM (inactive) | 22.4 µM (inactive) | 16.4 µM (inactive) | 21.4 µM (inactive) |
